In general, IC50 refers to the midpoint of a concentration-inhibition curve. High values mean weaker potency in that assay, low ones greater potency in that assay.

One series has as its system WI-38. The series can be described thus: Antiproliferative activity against human WI-38 cells measured after 48 hrs by MTT assay. The note with it: WI-38, 48 h. The format is functional, cell-based. A general note: Tetrazolium dyes change colour on reduction, which living cells bring about.
Series [1] in a line: Selectivity index, ratio IC50 for antiproliferative activity against human WI-38 cells over IC50 for antiproliferative activity against human A549 cells. The format is toxicity, cell-based. The note with it: WI-38 cells and A549 cells, read-out: Ratio IC50.
In a further series the test system is A549. The series can be described thus: cells. The conditions noted are these: Homo sapiens, A549, 48 h.
The next series has as its system Calu-1. The series can be described thus: Antiproliferative activity against human Calu-1 cells measured after 48 hrs by MTT assay. The note with it: Calu-1, 48 h. The format is functional, cell-based.
Series [2] concerns PC-9. The series can be described thus: Antiproliferative activity against human PC-9 cells measured after 48 hrs by MTT assay. The format is functional, cell-based. The conditions noted are these: PC-9, 48 h.
The next series relates to NCI-H460. The series can be described thus: Antiproliferative activity against human NCI-H460 cells measured after 48 hrs by MTT assay. The format is functional, cell-based. The note with it: NCI-H460, 48 h.
In another series the test system is Huh-7. Put plainly: Antiproliferative activity against human Huh-7 cells measured after 48 hrs by MTT assay. The format is functional, cell-based. The note with it: Huh-7, 48 h.
A further series has as its system 786-0. Put plainly: Antiproliferative activity against human 786-0 cells measured after 48 hrs by MTT assay. The format is functional, cell-based. The conditions noted are these: 786-0, 48 h.
Another series concerns HCT-116. Put plainly: Antiproliferative activity against human HCT-116 cells measured after 48 hrs by MTT assay. The note with it: HCT-116, 48 h. The format is functional, cell-based.
For a further series, the system named is HeLa. The series can be described thus: Antiproliferative activity against human HeLa cells measured after 48 hrs by MTT assay. The format is functional, cell-based.
The next series concerns SK-BR-3. Put plainly: Antiproliferative activity against human SK-BR-3 cells measured after 48 hrs by MTT assay. The note with it: SK-BR-3, 48 h. The format is functional, cell-based.
The subject of another series is SK-OV-3. The series can be described thus: Antiproliferative activity against human SK-OV-3 cells measured after 48 hrs by MTT assay. The format is functional, cell-based. The conditions noted are these: SK-OV-3, 48 h.
Series [3] deals with PC-9. Put plainly: Induction of apoptosis in human PC-9 cells assessed as total apoptotic cells at 3 ug/ml measured after 48 hrs by AnnexinV-FITC/PI staining based flow cytometry (reference value: 6.99%). The format is functional. The note with it: dose 3 µg/ml. A general note: Flow cytometry measures light scatter and fluorescence of single cells or particles in a stream.

Series [4] relates to PC-9. Put plainly: Induction of apoptosis in human PC-9 cells assessed as total apoptotic cells at 10 ug/ml measured after 48 hrs by AnnexinV-FITC/PI staining based flow cytometry (reference value: 6.99%). The conditions noted are these: dose 10 µg/ml. The format is functional.
The test system of series [5] is PC-9. The series can be described thus: Induction of apoptosis in human PC-9 cells assessed as total apoptotic cells at 100 ug/ml measured after 48 hrs by AnnexinV-FITC/PI staining based flow cytometry (reference value: 6.99%). The format is functional. The conditions noted are these: dose 100 µg/ml.
Series [6] is described as follows: Acute toxicity in female ICR mouse assessed as pathological changes in heart at 6.25 to 50 mg/kg measured by H and E staining method. The format is organism-based. The note with it: in vivo, dose 6.25-50 mg/kg.
The nature of series [7]: Acute toxicity in female ICR mouse assessed as pathological changes in liver at 6.25 to 50 mg/kg measured by H and E staining method. The format is organism-based. The note with it: in vivo, dose 6.25-50 mg/kg.
The nature of series [8]: Acute toxicity in female ICR mouse assessed as pathological changes in spleen at 6.25 to 50 mg/kg measured by H and E staining method. The format is organism-based. The conditions noted are these: in vivo, dose 6.25-50 mg/kg.
Series [9] is described as follows: Acute toxicity in female ICR mouse assessed as pathological changes in lung at 6.25 to 50 mg/kg measured by H and E staining method. The format is organism-based. The conditions noted are these: in vivo, dose 6.25-50 mg/kg.
Series [10] is described as follows: Acute toxicity in female ICR mouse assessed as pathological changes in kidney at 6.25 to 50 mg/kg measured by H and E staining method. The note with it: in vivo, dose 6.25-50 mg/kg. The format is organism-based.
Series [11] in a line: Acute toxicity in female ICR mouse assessed as pathological changes in intestine at 6.25 to 50 mg/kg measured by H and E staining method. The format is organism-based. The note with it: in vivo, dose 6.25-50 mg/kg.
A short description of series [12]: Acute toxicity in female ICR mouse assessed as changes in ALT level in liver at 6.25 to 50 mg/kg. The conditions noted are these: in vivo, dose 6.25-50 mg/kg. The format is organism-based.
The nature of series [13]: Acute toxicity in female ICR mouse assessed as changes in AST level in liver at 6.25 to 50 mg/kg. The conditions noted are these: in vivo, dose 6.25-50 mg/kg. The format is organism-based.
Series [14] in a line: Acute toxicity in female ICR mouse assessed as changes in creatine kinase (CK) level in heart at 6.25 to 50 mg/kg. The note with it: in vivo, dose 6.25-50 mg/kg. The format is organism-based.
Series [15] can be described thus: Acute toxicity in female ICR mouse assessed as pathological changes in heart at 25 mg/kg measured by H and E staining method. The format is organism-based. The conditions noted are these: in vivo.
Series [16] is described as follows: Acute toxicity in female ICR mouse assessed as pathological changes in liver at 25 mg/kg measured by H and E staining method. The format is organism-based. The conditions noted are these: in vivo.
Series [17] can be described thus: Acute toxicity in female ICR mouse assessed as pathological changes in spleen at 25 mg/kg measured by H and E staining method. The format is organism-based. The note with it: in vivo.
Series [18] is described as follows: Acute toxicity in female ICR mouse assessed as pathological changes in lung at 25 mg/kg measured by H and E staining method. The format is organism-based. The note with it: in vivo.
The nature of series [19]: Acute toxicity in female ICR mouse assessed as pathological changes in kidney at 25 mg/kg measured by H and E staining method. The conditions noted are these: in vivo. The format is organism-based.
Series [20] is described as follows: Acute toxicity in female ICR mouse assessed as pathological changes in intestine at 25 mg/kg measured by H and E staining method. The format is organism-based. The conditions noted are these: in vivo.
A short description of series [21]: Acute toxicity in female ICR mouse assessed as changes in ALT level in liver at 25 mg/kg. The format is organism-based. The note with it: in vivo.
The nature of series [22]: Acute toxicity in female ICR mouse assessed as changes in AST level in liver at 25 mg/kg. The format is organism-based. The conditions noted are these: in vivo.
A short description of series [23]: Acute toxicity in female ICR mouse assessed as changes in creatine kinase (CK) level in heart at 25 mg/kg. The format is organism-based. The note with it: in vivo.

≈ marks a conversion by molar mass, not a printed value.

Turning to `O=C1c2cccc(O)c2C(=O)c2c(O)cc(C(=O)N3CCN(C(=S)SCc4ccc(C(F)(F)F)cc4)CC3)cc21`, the IC50 in the series on WI-38 and in the series with A549 was more than 100 µg/mL throughout. In [1], the selectivity ratio came to 1.
With `CCOC(=O)CCCSC(=S)N1CCN(C(=O)c2cc(O)c3c(c2)C(=O)c2cccc(O)c2C3=O)CC1`, the IC50 with WI-38 was 55.3 µg/mL (≈ 102 µM); in the series with Calu-1, 23.8 µg/mL (≈ 43.8 µM); in the series on PC-9 [2] it was 10.8 µg/mL (≈ 19.9 µM); with NCI-H460, 23 µg/mL (≈ 42.4 µM); in the series with Huh-7 it was 23.8 µg/mL (≈ 44 µM); in the series with 786-0, 30.1 µg/mL (≈ 55.6 µM). The IC50 amounted to 25.9 µg/mL (≈ 47.7 µM) in the series with HCT-116; 30.6 µg/mL (≈ 56.4 µM) in the series with HeLa; 52 µg/mL (≈ 95.8 µM) with SK-BR-3; 35.5 µg/mL (≈ 65.4 µM) in the series on SK-OV-3; 10.9 µg/mL (≈ 20.1 µM) in the series with A549. In series [1], the selectivity ratio worked out at 5. Besides, the Activity with PC-9 [3] was 13.22%; with PC-9 [4], 28.97%; in the series on PC-9 [5], 47.06%; in [6] it was “Non-Toxic”; in [7], “Non-Toxic”; in [8], “Non-Toxic”. For the same compound, the Activity result in series [9], in [10], in [11], in series [12], in series [13] and in series [14] was “Non-Toxic” throughout.
Take `Cc1ccc(CSC(=S)N2CCN(C(=O)c3cc(O)c4c(c3)C(=O)c3cccc(O)c3C4=O)CC2)cc1`: the IC50 in the series with WI-38 and with A549 was more than 100 µg/mL throughout. Also, in [1], the selectivity ratio was 1.
On to `O=C1c2cccc(O)c2C(=O)c2c(O)cc(C(=O)N3CCN(C(=S)SCc4ccc(Cl)cc4)CC3)cc21`, for which the IC50 in the series with WI-38 is 72.5 µg/mL (≈ 131 µM); in the series with A549, more than 100 µg/mL.
Take `O=C(O)c1cc(O)c2c(c1)C(=O)c1cccc(O)c1C2=O` [RHEIN]: the figures for the IC50 in the series with WI-38 and with A549 were 92.3 µg/mL (≈ 325 µM) and 77.1 µg/mL (≈ 271 µM), respectively. In series [1], the selectivity ratio came out at 1. For the same compound, the Activity result in [15], in series [16], in [17], in series [18], in [19] and in [20] was “Non-Toxic” throughout. In addition, the Activity result in [21], in [22] and in [23] was “Non-Toxic” throughout.
As for `COC(=O)CSC(=S)N1CCN(C(=O)c2cc(O)c3c(c2)C(=O)c2cccc(O)c2C3=O)CC1`, the IC50 worked out at 67 µg/mL (≈ 134 µM) with WI-38 and 31 µg/mL (≈ 61.9 µM) with A549. Moreover, in series [1], the selectivity ratio was determined as 2.
In the case of `COc1cccc2c1C(=O)c1c(O)c3c(c(O)c1C2=O)C[C@@](O)(C(=O)CO)C[C@@H]3O[C@H]1C[C@H](N)[C@H](O)[C@H](C)O1` [DOXORUBICIN], the IC50 in the series on WI-38 was determined as 0.079 µg/mL (≈ 0.145 µM); in the series with A549 it was 0.665 µg/mL (≈ 1.22 µM).
In the case of `Nc1ccn([C@@H]2O[C@H](CO)[C@@H](O)[C@@H]2O)c(=O)n1` [CYTARABINE], the IC50 in the series with WI-38 was more than 100 µg/mL; with A549, 49.3 µg/mL (≈ 203 µM). Besides, in [1], the selectivity ratio was 2.
Taken in the same sequence, the figures for `O=C1c2cccc(O)c2C(=O)c2c(O)cc(C(=O)N3CCN(C(=S)SCc4ccccc4)CC3)cc21` were 48.8 µg/mL (≈ 94 µM), 78.6 µg/mL (≈ 152 µM) and 1.
For `O=C(CSC(=S)N1CCN(C(=O)c2cc(O)c3c(c2)C(=O)c2cccc(O)c2C3=O)CC1)OCc1ccccc1`, in that order: more than 100 µg/mL, 29.8 µg/mL (≈ 51.7 µM) and 3.
Taken in the same sequence, the figures for `C=CCSC(=S)N1CCN(C(=O)c2cc(O)c3c(c2)C(=O)c2cccc(O)c2C3=O)CC1` were more than 100 µg/mL, 40.5 µg/mL (≈ 86.5 µM) and 3.
For the compound `O=C1c2cccc(O)c2C(=O)c2c(O)cc(C(=O)N3CCN(C(=S)SCc4ccc(F)cc4)CC3)cc21`, the results for the IC50 with WI-38 and in the series with A549 were more than 100 µg/mL and 36.4 µg/mL (≈ 67.8 µM), respectively. For the same compound, in series [1], the selectivity ratio was 3.
For `O=C1c2cccc(O)c2C(=O)c2c(O)cc(C(=O)N3CCN(C(=S)SCCCOc4ccccc4)CC3)cc21`, in that order: more than 100 µg/mL, more than 100 µg/mL and 1.

The values are drawn from ChEMBL document CHEMBL5108023, “Design, synthesis and biological evaluation of rhein-piperazine-dithiocarbamate hybrids as potential anticancer agents” (Eur J Med Chem, 2022).
